How the values were obtained:
Format in all cases: ADME
Liver microsome [1] = assay: Drug metabolism human liver microsomes treated with 100 uM anastrozole assessed as retention time by mass spectrometry analysis
Liver microsome [2] = assay: Drug metabolism human liver microsomes treated with 100 uM lamotrigine assessed as retention time by mass spectrometry analysis
[3] = Drug metabolism in human liver microsomes assessed as UGT1A4 70C>A (AC) mutant-mediated compound glucuronidation at 100 uM by mass spectrometry analysis
[4] = Drug metabolism in human liver microsomes assessed as UGT1A4 -36G>A (GG) mutant-mediated compound glucuronidation at 100 uM by mass spectrometry analysis
[5] = Drug metabolism in human liver microsomes assessed as UGT1A4 70C>A (CC) mutant-mediated compound glucuronidation at 100 uM by mass spectrometry analysis
[6] = Drug metabolism in human liver microsomes assessed as UGT1A4 -219C>T(CT) mutant-mediated compound glucuronidation at 100 uM by mass spectrometry analysis
[7] = Drug metabolism in human liver microsomes assessed as UGT1A4 -219C>T(TT) mutant-mediated compound glucuronidation at 100 uM by mass spectrometry analysis
[8] = Drug metabolism in human liver microsomes assessed as UGT1A4 -163G>A(AA) variant-mediated compound glucuronidation at 100 uM by mass spectrometry analysis
[9] = Drug metabolism in human liver microsomes assessed as UGT1A4 -217T>G(GG) mutant-mediated compound glucuronidation at 100 uM by mass spectrometry analysis
[10] = Drug metabolism in human liver microsomes assessed as UGT1A4 70C>A (AA) mutant-mediated compound glucuronidation at 100 uM by mass spectrometry analysis
Liver microsome [11] = assay: Drug metabolism in pooled human liver microsomes assessed as IC50 for hecogenin-mediated inhibition of anastrozole glucuronidation after 90 mins; details: 1.5 h
[12] = Drug metabolism in human liver microsomes assessed as UGT1A4 -217T>G(TG) variant-mediated compound glucuronidation at 100 uM by mass spectrometry analysis
[13] = Drug metabolism in human liver microsomes assessed as UGT1A4 142T>G (GG) mutant-mediated compound glucuronidation at 100 uM by mass spectrometry analysis
[14] = Drug metabolism in human liver microsomes assessed as UGT1A4 -36G>A (AG) variant-mediated compound glucuronidation at 100 uM by mass spectrometry analysis
[15] = Drug metabolism in human liver microsomes assessed as UGT1A4 -36G>A (AA) variant-mediated compound glucuronidation at 100 uM by mass spectrometry analysis
[16] = Drug metabolism in human liver microsomes assessed as UGT1A4 -217T>G(TT) variant-mediated compound glucuronidation at 100 uM by mass spectrometry analysis
[17] = Drug metabolism in human liver microsomes assessed as UGT1A4 -163G>A(AG) mutant-mediated compound glucuronidation at 100 uM by mass spectrometry analysis
Liver microsome [18] = assay: Drug metabolism in human liver microsomes assessed as retention time at 100 uM by mass spectrometry analysis
[19] = Drug metabolism in human liver microsomes assessed as UGT1A4 -219C>T(CC) mutant-mediated compound glucuronidation at 100 uM by mass spectrometry analysis
[20] = Drug metabolism in human liver microsomes assessed as UGT1A4 142T>G (TG) mutant-mediated compound glucuronidation at 100 uM by mass spectrometry analysis
[21] = Drug metabolism in human liver microsomes assessed as UGT1A4 142T>G (TT) mutant-mediated compound glucuronidation at 100 uM by mass spectrometry analysis
Liver microsome [22] = assay: Drug metabolism in human liver microsomes assessed as glucuronide formation per mg protein by mass spectrometry analysis
[23] = molecular target: T1, UDP-glucuronosyltransferase 1A4 (Homo sapiens, UniProt P22310); assay: Drug metabolism assessed as hecogenin-mediated inhibition of human recombinant UGT1A4-catalyzed anastrozole glucuronidation after 90 mins
T1 sequence (P22310 whole entry): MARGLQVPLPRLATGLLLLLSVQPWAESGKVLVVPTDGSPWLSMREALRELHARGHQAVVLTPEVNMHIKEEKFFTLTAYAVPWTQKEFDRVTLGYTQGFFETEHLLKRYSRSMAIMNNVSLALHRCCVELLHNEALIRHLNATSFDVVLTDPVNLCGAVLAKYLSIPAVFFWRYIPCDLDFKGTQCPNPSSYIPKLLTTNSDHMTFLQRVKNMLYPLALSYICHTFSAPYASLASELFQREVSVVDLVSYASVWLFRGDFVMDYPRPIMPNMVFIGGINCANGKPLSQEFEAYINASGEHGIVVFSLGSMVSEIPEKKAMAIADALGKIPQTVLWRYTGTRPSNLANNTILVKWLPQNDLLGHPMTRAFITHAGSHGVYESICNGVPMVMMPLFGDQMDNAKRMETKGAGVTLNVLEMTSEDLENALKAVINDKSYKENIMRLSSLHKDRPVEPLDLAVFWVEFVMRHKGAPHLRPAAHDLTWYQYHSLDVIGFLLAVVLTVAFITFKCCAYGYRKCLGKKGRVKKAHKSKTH

[24] = Drug metabolism in human liver microsomes assessed as UGT1A4 -163G>A(GG) variant-mediated compound glucuronidation at 100 uM by mass spectrometry analysis

CC(C)(C#N)c1cc(Cn2c[n+]([C@@H]3O[C@H](C(=O)[O-])[C@@H](O)[C@H](O)[C@H]3O)cn2)cc(C(C)(C)C#N)c1
Retention_time (Liver microsome [1]): 2.86 min

Nc1nc(N)[n+]([C@@H]2O[C@H](C(=O)[O-])[C@@H](O)[C@H](O)[C@H]2O)nc1-c1cccc(Cl)c1Cl
Retention_time (Liver microsome [2]): 1.34 min

CC(C)(C#N)c1cc(Cn2cncn2)cc(C(C)(C)C#N)c1 [ANASTROZOLE]
Drug metabolism [3]: 0.3 pmol/min/µg
Drug metabolism [4]: 0.3 pmol/min/µg
Drug metabolism [5]: 0.4 pmol/min/µg
Drug metabolism [6]: 0.9 pmol/min/µg
Drug metabolism [7]: 1 pmol/min/µg
Drug metabolism [8]: 0.8 pmol/min/µg
Drug metabolism [9]: 1.9 pmol/min/µg
Drug metabolism [10]: 0.8 pmol/min/µg
IC50 (Liver microsome [11]): 15 µM
Drug metabolism [12]: 1.5 pmol/min/µg
Drug metabolism [13]: 0.3 pmol/min/µg
Drug metabolism [14]: 1 pmol/min/µg
Drug metabolism [15]: 1.3 pmol/min/µg
Drug metabolism [16]: 0.3 pmol/min/µg
Drug metabolism [17]: 0.7 pmol/min/µg
Retention_time (Liver microsome [18]): 3.95 min
Drug metabolism [19]: 0.4 pmol/min/µg
Drug metabolism [20]: 0.3 pmol/min/µg
Drug metabolism [21]: 0.5 pmol/min/µg
Drug metabolism (Liver microsome [22]): 0.023 pmol/min
IC50 [23]: 4.72 µM
Drug metabolism [24]: 0.4 pmol/min/µg

Nc1nnc(-c2cccc(Cl)c2Cl)c(N)n1 [LAMOTRIGINE]
Retention_time (Liver microsome [18]): 1.63 min
Drug metabolism (Liver microsome [22]): metabolite_detected

Reference: ChEMBL document CHEMBL3525947, “Potential role of UGT1A4 promoter SNPs in anastrozole pharmacogenomics” (Drug Metab Dispos, 2013)
